Reference: patent US12043600B2, “Microbiocidal compounds” (SYNGENTA CROP PROTECTION AG, priority 2018, dated 2024)

Tests used:
[1] = tested on: Sclerotinia sclerotiorum; test: Sclerotinia sclerotiorum/Liquid Culture (Cottony Rot); format: cell-based; conditions: liquid culture, compared to untreated control
Procedure: (§1) Mycelia fragments of a newly grown liquid culture of the fungus are directly mixed into nutrient broth (PDB potato dextrose broth). After placing a (DMSO) solution of test compound into a microtiter plate (96-well format) the nutrient broth containing the fungal material is added.

[2] = tested on: Mycosphaerella arachidis (Cercospora arachidicola); test: Mycosphaerella arachidis (Cercospora arachidicola)/Liquid Culture (Early Leaf Spot); format: cell-based; conditions: liquid culture, compared to untreated control
Summary of the method: (§2)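 Growth inhibition read in liquid culture: spores from frozen stocks, suspended in potato dextrose broth, meet DMSO-dissolved compound placed beforehand in the plate.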

[3] = tested on: Puccinia recondita f. sp. tritici; test: Puccinia recondita f. sp. tritici/Wheat/Leaf Disc Preventative (Brown Rust); format: in vivo; conditions: foliar, 200 ppm, wheat leaf disc preventative, compared to untreated control, read-out: control of Puccinia recondita f. sp. tritici
[4] = tested on: Mycosphaerella graminicola (Septoria tritici); test: Mycosphaerella graminicola (Septoria tritici)/Liquid Culture (Septoria Blotch); format: cell-based; conditions: Zymoseptoria tritici; 20 ppm; liquid culture; compared to untreated control
Summary of the method: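 Results given as % disease control: test compound in DMSO was placed in wells first, then potato dextrose broth carrying cryostored fungal conidia was added.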

[5] = tested on: Botryotinia fuckeliana (Botrytis cinerea); test: Botryotinia fuckeliana (Botrytis cinerea)/Liquid Culture (Gray Mould); format: cell-based; conditions: liquid culture, compared to untreated control
Procedure: Conidia of the fungus from cryogenic storage are directly mixed into nutrient broth (Vogels broth). After placing a (DMSO) solution of test compound into a microtiter plate (96-well format), the nutrient broth containing the fungal spores is added.

[6] = tested on: Thanatephorus cucumeris (Rhizoctonia solani); test: Thanatephorus cucumeris (Rhizoctonia solani)/Liquid Culture (Foot Rot, Damping-Off); format: cell-based; conditions: liquid culture, compared to untreated control
Procedure: Mycelia fragments of a newly grown liquid culture of the fungus are directly mixed into nutrient broth (PDB potato dextrose broth). After placing a (DMSO) solution of the test compounds into a microtiter plate (96-well format), the nutrient broth containing the fungal material is added.

[7] = tested on: Monographella nivalis (Microdochium nivale); test: Monographella nivalis (Microdochium nivale)/Liquid Culture (Foot Rot Cereals); format: cell-based; conditions: liquid culture, compared to untreated control
Summary of the method: as §2

[8] = tested on: Plasmopara viticola; test: whole plant or invertebrate; format: in vivo; conditions: foliar, read-out: control of Plasmopara viticola
[9] = tested on: Puccinia recondita f. sp. tritici; test: Puccinia recondita f. sp. tritici/Wheat/Leaf Disc Curative (Brown Rust); format: in vivo; conditions: foliar, wheat leaf disc curative, compared to untreated control
Summary of the method: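 Formulated compound, diluted in water, is applied to inoculated wheat cv. Kanzler leaf segments on agar one day post-inoculation (pre-incubation dark, 19° C, 75% rh). After 6-8 days at 19° C, 75% rh and 12 h/12 h light, activity is rated as percent disease control relative to untreated segments.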

[10] = tested on: Glomerella lagenarium (Colletotrichum lagenarium); test: Glomerella lagenarium (Colletotrichum lagenarium)/Liquid Culture (Anthracnose); format: cell-based; conditions: Colletotrichum orbiculare, liquid culture, compared to untreated control
[11] = tested on: Phytophthora infestans; test: whole plant or invertebrate; format: in vivo; conditions: in Solanum lycopersicum, foliar, read-out: control of Phytophthora infestans
[12] = tested on: Magnaporthe grisea (Pyricularia oryzae); test: whole plant or invertebrate; format: in vivo; conditions: foliar, read-out: control of Magnaporthe grisea
[13] = tested on: Blumeria graminis f. sp. tritici (Erysiphe graminis f. sp. tritici); test: Blumeria graminis f. sp. tritici/Wheat/Leaf Disc Preventative (Powdery Mildew on Wheat); format: in vivo; conditions: foliar, wheat leaf disc preventative, compared to untreated control
Summary of the method: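 Preventative leaf-disc test: percent disease control versus untreated leaf segments read 6-8 days post-application. Compound spray applied to wheat cv. Kanzler segments on agar one day before shaking infected plants over them; incubation at 20° C and 60% rh, 24 h darkness then 12 h light/12 h dark cycles.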

[14] = tested on: Phakopsora pachyrhizi; test: Phakopsora pachyrhizi/Soybean/Preventative (Soybean Rust); format: in vivo; conditions: foliar, 288 h, 200 ppm, soybean leaf disc preventative, compared to untreated control, read-out: control of Phakopsora pachyrhizi
[15] = tested on: Phaeosphaeria nodorum (Septoria nodorum); test: Phaeosphaeria nodorum (Septoria nodorum)/Wheat/Leaf Disc Preventative (Glume Blotch); format: in vivo; conditions: Parastagonospora nodorum, foliar, wheat leaf disc preventative, compared to untreated control
Summary of the method: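 Preventative test: compound spray first, then spore inoculation after 2 days on cv. Kanzler wheat leaf segments. Incubation in a climate cabinet at 20 °C and 75% rh under a 12 h light/12 h dark cycle. Activity rated as % control relative to untreated discs at 5–7 days post-application.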

[16] = tested on: Pythium ultimum; test: Pythium ultimum/Liquid Culture (Seedling Damping Off); format: cell-based; conditions: Globisporangium ultimum, liquid culture, compared to untreated control
Procedure: as §1, with “fragments and oospores” for “fragments”, “format),” for “format)”, “mycelia/spore mixture” for “material”

[17] = tested on: Alternaria solani; test: Alternaria solani/Tomato/Leaf Disc (Early Blight); format: in vivo; conditions: foliar, tomato leaf disc, compared to untreated control
Summary of the method: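 Protective leaf-disc test: compound sprayed onto tomato cv. Baby disks, spore inoculation following after 2 days. Disks kept at 80% rh, 12/12 h light/dark, 23° C. day and 21° C. night; activity read as percent disease control relative to untreated checks 5-7 days post-application.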

[18] = tested on: Pyrenophora teres; test: Pyrenophora teres/Barley/Leaf Disc Preventative (Net Blotch); format: in vivo; conditions: foliar, 200 ppm, barley leaf disc preventative, compared to untreated control, read-out: control of Pyrenophora teres
Summary of the method: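 Preventative leaf-disc test: inoculation with fungal spores took place 2 days after spraying segments of barley cv. Hasso, placed on agar, with water-diluted formulated compound. Read-out is % disease control per compound.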

[19] = Photostability assay (Atlas Suntest); format: physicochemical; conditions: Suntest 750 W/m^2, spotted on microscope slides
Procedure: The testing method to measure the photostability data of each compound in table is D1 is as specifically described below. The objective of the photostability assay was to determine the stability of the individual test compounds in a strictly controlled and reproducible environment allowing a comparison of their photostability.
Method: Compounds were dissolved in methanol (HPLC grade) to give 1 g/L stock solutions. Compound stock solution (2 μl) was spotted onto microscope slides in a 3D printed holder and put into the Atlas Suntest. The spectral output power of the Suntest was set to 750 W/m^2, which is considered typical of the daily maximum (noon) irradiance level on a very bright British Summer day. At specific time points slides were removed from the Suntest and placed in 4D vials. Wash solvent made up of 50:40:10 H2O:MeCN:THF (1 mL) is then added to the vials and whirlimixed. The resulting solution is then subsampled to an HPLC vial to be analysed. A Waters UPLC system with Photodiode Array was used with a Waters reverse phase column (BEH C18, 100×2.1 mm×1.7 μm) and acetonitrile (HPLC grade) acidified water (0.2% formic acid) mobile phase at a flow rate of 0.6 mL/min. Peak detection was at the optimum wavelength and peak areas were used for quantification
Initial and subsequent measurements of peak area attributable to the test compound were used to provide a % parent remaining at 3 hours.

| SMILES | inhibition of growth at 20 ppm [1] | inhibition of growth at 20 ppm [2] | pest or weed control at 200 ppm [3] | inhibition of growth at 20 ppm [4] | melting point | inhibition of growth at 20 ppm [5] | inhibition of growth at 20 ppm [6] | inhibition of growth at 20 ppm [7] | pest or weed control at 200 ppm [8] | pest or weed control at 200 ppm [9] | inhibition of growth at 20 ppm [10] | pest or weed control at 200 ppm [11] | pest or weed control at 200 ppm [12] | pest or weed control at 200 ppm [13] | pest or weed control at 200 ppm [14] | pest or weed control at 200 ppm [15] | inhibition of growth at 20 ppm [16] | pest or weed control at 200 ppm [17] | pest or weed control at 200 ppm [18] | % Parent Remaining @ 3 hrs [19] |
| --- | --- | --- | --- | --- | --- | --- | --- | --- | --- | --- | --- | --- | --- | --- | --- | --- | --- | --- | --- | --- |
| CO/C=C(\Oc1cc(-n2ccc(C(C)C(F)(F)F)n2)ccc1C)C(=O)OC (centres unmarked) [Compound E-23, methyl (Z)-3-methoxy-2-[2-methyl-5-[3-(2,2,2-trifluoro-1-methyl-ethyl)pyrazol-1-yl]phenoxy]prop-2-enoate] | ≥ 80% | ≥ 80% | ≥ 80% | ≥ 80% | 119 to 122 °C | ≥ 80% | ≥ 80% | ≥ 80% | ≥ 80% | ≥ 80% | ≥ 80% | ≥ 80% | – | – | – | – | – | – | – | – |
| CO/C=C(\Oc1cc(-n2ccc(C(F)(F)C(F)(F)F)n2)ccc1C)C(=O)OC [Compound E-69, methyl (Z)-3-methoxy-2-[2-methyl-5-[3-(1,1,2,2,2-pentafluoroethyl)pyrazol-1-yl]phenoxy]prop-2-enoate] | ≥ 80% | ≥ 80% | ≥ 80% | ≥ 80% | 117 to 120 °C | – | ≥ 80% | ≥ 80% | ≥ 80% | ≥ 80% | ≥ 80% | – | ≥ 80% | ≥ 80% | – | – | – | – | – | – |
| CO/C=C(\Oc1cc(-n2ccc(C(C)C)n2)cc(F)c1C)C(=O)OC [Compound E-7, methyl (Z)-2-[3-fluoro-5-(3-isopropylpyrazol-1-yl)-2-methyl-phenoxy]-3-methoxy-prop-2-enoate] | – | ≥ 80% | ≥ 80% | ≥ 80% | 114 to 116 °C | – | – | ≥ 80% | ≥ 80% | ≥ 80% | ≥ 80% | ≥ 80% | ≥ 80% | ≥ 80% | ≥ 50% | ≥ 80% | ≥ 80% | – | – | – |
| CO/C=C(\Oc1cc(-n2ccc(C3CCCCC3)n2)ccc1C)C(=O)OC [Compound E-36, methyl (Z)-2-[5-(3-cyclohexylpyrazol-1-yl)-2-methyl-phenoxy]-3-methoxy-prop-2-enoate] | ≥ 80% | ≥ 80% | ≥ 80% | ≥ 80% | 85 to 89 °C | ≥ 80% | ≥ 80% | ≥ 80% | ≥ 80% | ≥ 80% | ≥ 80% | ≥ 80% | ≥ 80% | – | – | ≥ 80% | – | ≥ 80% | ≥ 80% | – |
| C=C(c1ccn(-c2ccc(C)c(O/C(=C\OC)C(=O)OC)c2)n1)C(F)(F)F [Compound E-24, methyl (Z)-3-methoxy-2-[2-methyl-5-[3-[1-(trifluoromethyl)vinyl]pyrazol-1-yl]phenoxy]prop-2-enoate] | ≥ 80% | ≥ 80% | ≥ 80% | ≥ 80% | – | ≥ 80% | ≥ 80% | ≥ 80% | ≥ 80% | ≥ 80% | ≥ 80% | ≥ 80% | ≥ 80% | ≥ 80% | – | ≥ 80% | – | – | – | – |
| CO/C=C(\Oc1cc(-n2ncc(C3CCCCC3)n2)ccc1C)C(=O)OC [Compound F-7, methyl (Z)-2-[5-(4-cyclohexyltriazol-2-yl)-2-methyl-phenoxy]-3-methoxy-prop-2-enoate] | ≥ 80% | ≥ 80% | ≥ 80% | ≥ 80% | 120 to 122 °C | – | – | ≥ 80% | ≥ 80% | ≥ 80% | ≥ 80% | – | ≥ 80% | ≥ 80% | – | ≥ 80% | – | – | ≥ 80% | – |
| CO/C=C(\Oc1cc(-n2ccc(C3(F)CC3)n2)ccc1C)C(=O)OC [Compound E-67, methyl (Z)-2-[5-[3-(1-fluorocyclopropyl)pyrazol-1-yl]-2-methyl-phenoxy]-3-methoxy-prop-2-enoate] | ≥ 80% | ≥ 80% | ≥ 80% | ≥ 80% | 128 to 131 °C | – | ≥ 80% | ≥ 80% | ≥ 80% | ≥ 80% | ≥ 80% | ≥ 80% | – | ≥ 80% | – | ≥ 80% | – | ≥ 80% | ≥ 80% | 37% |
| CO/C=C(\Oc1cccc(-n2ncc(C3CC3)n2)c1)C(=O)OC [Compound F-9, methyl (Z)-2-[3-(4-cyclopropyltriazol-2-yl)phenoxy]-3-methoxy-prop-2-enoate] | – | ≥ 80% | ≥ 80% | ≥ 80% | – | – | – | ≥ 80% | ≥ 80% | ≥ 80% | ≥ 80% | ≥ 80% | – | ≥ 80% | – | – | ≥ 80% | – | – | – |
